Reference: patent US6645918B1, “N-([1,2,4]triazoloazinyl)thiophenesulfonamide compounds and their use as herbicides” (Dow AgroSciences LLC, priority 2000, dated 2003)

What was measured:
Assay type in all cases: in vivo
[1] = system: velvetleaf (Abutilion theophrasti); experiment: Preemergence herbicidal activity, velvetleaf; settings: soil spray, visual after 3 weeks, 0 no injury, 100 complete kill or no germination
Procedure, shortened: (§1)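 Compounds in acetone/DMSO were diluted in water with 0.1% Tween 155 and sprayed onto soil of seeded pots, highest rate 4.48 kg/ha. Pots were kept in a greenhouse with ~15 h photoperiod at about 23-29 °C day and 22-28 °C night. Injury was scored visually after 3 weeks against untreated controls, 0 (none) to 100% (kill/no germination).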

[2] = system: pigweed (Amaranthus retroflexus); experiment: Postemergence herbicidal activity, pigweed; settings: foliar spray, visual after 2 weeks, 0 no injury, 100 complete kill
Procedure, shortened: (§2)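 Greenhouse plants at first–second true leaf stage sprayed with compound in acetone/water/isopropanol/DMSO/crop oil/Triton X-155 carrier (1 ppm ≈ 1 g/ha). Sub-irrigated; visual injury versus untreated controls scored after 2 weeks on a 0–100% scale (100 = complete kill).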

viola (Viola tricolor) = experiment: Postemergence herbicidal activity, viola; settings: foliar spray, visual after 2 weeks, 0 no injury, 100 complete kill
Procedure, shortened: as §2

[3] = system: Rox orange sorghum (Sorghum bicolor); experiment: Postemergence herbicidal activity, Rox orange sorghum; settings: foliar spray, visual after 2 weeks, 0 no injury, 100 complete kill
Procedure, shortened: as §2

[4] = system: barnyardgrass (Echinochloa crus-galli); experiment: Preemergence herbicidal activity, barnyardgrass; settings: soil spray, visual after 3 weeks, 0 no injury, 100 complete kill or no germination
Procedure, shortened: as §1

[5] = system: crabgrass (Digitaria sanguinalis); experiment: Preemergence herbicidal activity, crabgrass; settings: soil spray, visual after 3 weeks, 0 no injury, 100 complete kill or no germination
Procedure, shortened: as §1

[6] = system: wild buckwheat (Polygonum convolvulus); experiment: Postemergence herbicidal activity, wild buckwheat; settings: foliar spray, visual after 2 weeks, 0 no injury, 100 complete kill
Experimental: Seeds of the desired test plant species were planted in Grace-Sierra MetroMix® 306 planting mixture, which typically has a pH of 6.0 to 6.8 and an organic matter content of about 30 percent, in plastic pots with a surface area of 64 square centimeters. When required to ensure good germination and healthy plants, a fungicide treatment and/or other chemical or physical treatment was applied. The plants were grown for 7-21 days in a greenhouse with an approximately 15 hr photoperiod which was maintained at about 23-29° C. during the day and 22-28° C. during the night. Nutrients and water were added on a regular basis and supplemental lighting was provided with overhead metal halide 1000 Watt lamps as necessary. The plants were employed for testing when they reached the first or second true leaf stage. A weighed amount of each test compound, determined by the highest rate to be tested, was placed in a 20 mL glass vial and was dissolved in 4 mL of a 97:3 v/v (volume/volume) mixture of acetone and dimethyl sulfoxide to obtain concentrated stock solutions. […] The concentrated stock solutions obtained were diluted with an aqueous mixture containing acetone, water, iso-propyl alcohol, dimethyl sulfoxide, Atplus 411F crop oil concentrate, and Triton X-155 surfactant (methylenebisdiamyl phenoxy polyethoxy ethanol) in a 48.5:39:10:1.5:1.0:0.02 v/v ratio to obtain spray solutions of known concentration. The solutions containing the highest concentration to be tested were prepared by diluting 2 mL aliquots of the stock solution with 13 mL of the mixture and lower concentrations were prepared by dilution of appropriate smaller portions of the stock solution. Approximately 1.5 mL aliquots of each solution of known concentration were sprayed evenly onto each of the test plant pots using a DeVilbiss atomizer driven by compressed air pressure of 2 to 4 psi (140 to 280 kilopascals) to obtain thorough coverage of each plant. Control plants were sprayed in the same manner with the aqueous mixture. In this test an application rate of 1 ppm results in the application of approximately 1 g/ha. The treated plants and control plants were placed in a greenhouse as described above and watered by sub-irrigation to prevent wash-off of the test compounds. After 2 weeks the condition of the test plants as compared with that of the untreated plants was determined visually and scored on a scale of 0 to 100 percent where 0 corresponds to no injury and 100 corresponds to complete kill.

[7] = system: Rox orange sorghum (Sorghum bicolor); experiment: Preemergence herbicidal activity, Rox orange sorghum; settings: soil spray, visual after 3 weeks, 0 no injury, 100 complete kill or no germination
Procedure, shortened: as §1

[8] = system: morningglory (Ipomoea hederacea); experiment: Preemergence herbicidal activity, morningglory; settings: soil spray, visual after 3 weeks, 0 no injury, 100 complete kill or no germination
Procedure, shortened: as §1

[9] = system: cocklebur (Xanthium strumarium); experiment: Preemergence herbicidal activity, cocklebur; settings: soil spray, visual after 3 weeks, 0 no injury, 100 complete kill or no germination
Procedure, shortened: as §1

[10] = system: cocklebur (Xanthium strumarium); experiment: Postemergence herbicidal activity, cocklebur; settings: foliar spray, visual after 2 weeks, 0 no injury, 100 complete kill
Procedure, shortened: as §2

[11] = system: wild poinsettia (Euphorbia heterophylla); experiment: Preemergence herbicidal activity, wild poinsettia; settings: soil spray, visual after 3 weeks, 0 no injury, 100 complete kill or no germination
Procedure, shortened: as §1

[12] = system: lambsquarters (Chenopodium album); experiment: Preemergence herbicidal activity, lambsquarters; settings: soil spray, visual after 3 weeks, 0 no injury, 100 complete kill or no germination
Procedure, shortened: as §1

[13] = system: lambsquarters (Chenopodium album); experiment: Postemergence herbicidal activity, lambsquarters; settings: foliar spray, visual after 2 weeks, 0 no injury, 100 complete kill
Procedure, shortened: as §2

[14] = system: chickweed (Stellaria media); experiment: Postemergence herbicidal activity, chickweed; settings: foliar spray, visual after 2 weeks, 0 no injury, 100 complete kill
Procedure, shortened: as §2

[15] = system: morningglory (Ipomoea hederacea); experiment: Postemergence herbicidal activity, morningglory; settings: foliar spray, visual after 2 weeks, 0 no injury, 100 complete kill
Procedure, shortened: as §2

[16] = system: blackgrass (Alopecurus myosuroides); experiment: Preemergence herbicidal activity, blackgrass; settings: soil spray, visual after 3 weeks, 0 no injury, 100 complete kill or no germination
Procedure, shortened: as §1

[17] = system: blackgrass (Alopecurus myosuroides); experiment: Postemergence herbicidal activity, blackgrass; settings: foliar spray, visual after 2 weeks, 0 no injury, 100 complete kill
Procedure, shortened: as §2

wild oats (Avena fatua) [18] = experiment: Postemergence herbicidal activity, wild oats; settings: foliar spray, visual after 2 weeks, 0 no injury, 100 complete kill
Procedure, shortened: as §2

wild oats (Avena fatua) [19] = experiment: Preemergence herbicidal activity, wild oats; settings: soil spray, visual after 3 weeks, 0 no injury, 100 complete kill or no germination
Procedure, shortened: as §1

[20] = system: pigweed (Amaranthus retroflexus); experiment: Preemergence herbicidal activity, pigweed; settings: soil spray, visual after 3 weeks, 0 no injury, 100 complete kill or no germination
Procedure, shortened: as §1

[21] = system: giant foxtail (Setaria faberi); experiment: Preemergence herbicidal activity, giant foxtail; settings: soil spray, visual after 3 weeks, 0 no injury, 100 complete kill or no germination
Procedure, shortened: as §1

[22] = system: giant foxtail (Setaria faberi); experiment: Postemergence herbicidal activity, giant foxtail; settings: foliar spray, visual after 2 weeks, 0 no injury, 100 complete kill
Procedure, shortened: as §2

[23] = system: velvetleaf (Abutilion theophrasti); experiment: Postemergence herbicidal activity, velvetleaf; settings: foliar spray, visual after 2 weeks, 0 no injury, 100 complete kill
Procedure, shortened: as §2

COc1cc(OC)n2nc(NS(=O)(=O)c3c(OC)csc3C)nc2n1 [Compound 24]
ABUTH preemergence injury score 0-100 ([1]; 8.8 g/Ha): 98%
AMARE postemergence injury score 0-100 ([2]; 7.8 ppm): 100%
VIOTR postemergence injury score 0-100 (viola (Viola tricolor); 7.8 ppm): 70%
SORBI postemergence injury score 0-100 ([3]; 7.8 ppm): 100%
ECHCG preemergence injury score 0-100 ([4]; 8.8 g/Ha): 40%
DIGSA preemergence injury score 0-100 ([5]; 8.8 g/Ha): 98%
POLCO postemergence injury score 0-100 ([6]; 7.8 ppm): 70%
SORBI preemergence injury score 0-100 ([7]; 8.8 g/Ha): 100%
IPOHE preemergence injury score 0-100 ([8]; 8.8 g/Ha): 98%
XANST preemergence injury score 0-100 ([9]; 8.8 g/Ha): 70%
XANST postemergence injury score 0-100 ([10]; 7.8 ppm): 90%
EPHHL preemergence injury score 0-100 ([11]; 8.8 g/Ha): 80%
CHEAL preemergence injury score 0-100 ([12]; 8.8 g/Ha): 100%
CHEAL postemergence injury score 0-100 ([13]; 7.8 ppm): 85%
STEME postemergence injury score 0-100 ([14]; 7.8 ppm): 80%
IPOHE postemergence injury score 0-100 ([15]; 7.8 ppm): 80%
ALOMY preemergence injury score 0-100 ([16]; 8.8 g/Ha): 90%
ALOMY postemergence injury score 0-100 ([17]; 7.8 ppm): 80%
AVEFA postemergence injury score 0-100 (wild oats (Avena fatua) [18]; 7.8 ppm): 70%
AVEFA preemergence injury score 0-100 (wild oats (Avena fatua) [19]; 8.8 g/Ha): 70%
AMARE preemergence injury score 0-100 ([20]; 8.8 g/Ha): 90%
SETFA preemergence injury score 0-100 ([21]; 8.8 g/Ha): 100%
SETFA postemergence injury score 0-100 ([22]; 7.8 ppm): 90%
ABUTH postemergence injury score 0-100 ([23]; 7.8 ppm): 70%

COc1csc(C)c1S(=O)(=O)Nc1nc2c(Cl)cnc(OC)n2n1 [Compound 22]
ABUTH preemergence injury score 0-100 ([1]; 35 g/Ha): 100%
AMARE postemergence injury score 0-100 ([2]; 31.3 ppm): 100%
VIOTR postemergence injury score 0-100 (viola (Viola tricolor); 31.3 ppm): 80%
SORBI postemergence injury score 0-100 ([3]; 31.3 ppm): 95%
ECHCG preemergence injury score 0-100 ([4]; 35 g/Ha): 100%
DIGSA preemergence injury score 0-100 ([5]; 35 g/Ha): 98%
POLCO postemergence injury score 0-100 ([6]; 31.3 ppm): 90%
SORBI preemergence injury score 0-100 ([7]; 35 g/Ha): 100%
IPOHE preemergence injury score 0-100 ([8]; 35 g/Ha): 98%
XANST preemergence injury score 0-100 ([9]; 35 g/Ha): 80%
XANST postemergence injury score 0-100 ([10]; 31.3 ppm): 90%
EPHHL preemergence injury score 0-100 ([11]; 35 g/Ha): 80%
CHEAL preemergence injury score 0-100 ([12]; 35 g/Ha): 98%
CHEAL postemergence injury score 0-100 ([13]; 31.3 ppm): 90%
STEME postemergence injury score 0-100 ([14]; 31.3 ppm): 80%
IPOHE postemergence injury score 0-100 ([15]; 31.3 ppm): 90%
ALOMY preemergence injury score 0-100 ([16]; 35 g/Ha): 70%
ALOMY postemergence injury score 0-100 ([17]; 31.3 ppm): 60%
AVEFA postemergence injury score 0-100 (wild oats (Avena fatua) [18]; 31.3 ppm): 50%
AVEFA preemergence injury score 0-100 (wild oats (Avena fatua) [19]; 35 g/Ha): 70%
AMARE preemergence injury score 0-100 ([20]; 35 g/Ha): 100%
SETFA preemergence injury score 0-100 ([21]; 35 g/Ha): 100%
SETFA postemergence injury score 0-100 ([22]; 31.3 ppm): 80%
ABUTH postemergence injury score 0-100 ([23]; 31.3 ppm): 70%
